Assay results reported in patent US20120108641A1, “ANTITUMOR COMBINATION INCLUDING AVE8062 AND SORAFENIB” (SANOFI, priority 2009, published 2012).
“And” between values parts separate entries of the source, which are not always exact repeats. Identical values can stand only once. Like-named read-outs stand apart in the source and are kept apart here.

Legend:
[1] = test system: NCI-H460 human non-small cell lung tumour; assay: Study 2: sorafenib administered 1 h after AVE8062, antitumour activity; type: in vivo, female SCID mice
Excerpt: (§1) A product is considered to be active if the log10 cell kill is greater than or equal to 0.7.
(§2) In the case of an early tumour treatment, the implanted animals are distributed randomly in various groups which are, or are not (controls), intended to receive the treatment(s). […] The animals are observed and weighed every day. A dose which induces a weight loss of 20% or more at the lowest point (average of the group) or a mortality of 10% or more is considered to be toxic. The tumour activity is evaluated at the highest non-toxic dose, or at the highest dose tested, within the context of a non-cytotoxic agent.
(§3) The tumours are measured 2 or 3 times a week until the tumour reaches approximately 2 g or until the animal dies, if this occurs before the tumour reaches 2 g. The animals are autopsied when they are sacrificed.
(§4) The antitumor activity is determined in accordance with various recorded parameters, such as the dose (mg/kg), the method of administration, the administration time, the toxicity and the log10 cell kill, which depends on the tumour growth delay and also on the tumour doubling time.
(§5) Within the context of the following studies, the AVE8062, in hydrochloride form, is formulated in water with 0.9% NaCl.
Study 2: Sorafenib Administered 1 h after AVE8062 in the Combination (Table II)
(§6) The AVE8062 was administered intravenously on days 10 and 14 post tumour implantation. The sorafenib was administered orally from day 10 to day 14. The two agents were administered in combination, according to the same schedules as those used for the agents alone, but the administration of sorafenib having been staggered one hour after the administration of the AVE8062.

[2] = test system: NCI-H460 human non-small cell lung tumour; assay: Study 3: sorafenib administered 24 h after AVE8062, antitumour activity; type: in vivo, female SCID mice
Excerpt: as §1
(§7) The activity in this case is acknowledged for a net log cell kill that is positive (>0). A cytostatic activity corresponds to a net log cell kill of 0, that is to say that the treatment time is equal to the duration of the antitumour effect.
as §2, §3, §4, §5
Study 3: Sorafenib Administered 24 h after AVE8062 in the Combination (Table III)
The AVE8062 was administered intravenously on days 9 and 14 post implantation of the NCI-H460 pulmonary tumour in female SCID mice. The sorafenib was administered orally from day 9 to day 20. When the 2 agents were administered in combination, the same schedules were used as for the agents alone, but the administrations of sorafenib were started 24 hours after that of AVE8062.

[3] = Protocol: as §2, §5, §6
[4] = test system: NCI-H460 human non-small cell lung tumour; assay: Study 1: sorafenib administered simultaneously with AVE8062, antitumour activity; type: in vivo, female SCID mice; conditions: AVE8062 22.3 mg/kg per injection i.v. days 9, 13
Excerpt: as §1, §7, §2, §3, §4, §5
Study 1: Sorafenib Administered Simultaneously with AVE8062 (Table I)
The AVE8062 was administered intravenously on days 9 and 13 post tumour implantation. The sorafenib was administered orally from day 9 to day 24. When the two agents were administered in combination, the same schedules were used as for the agents alone, the combination of the two agents having been carried out simultaneously on days 9 and 13.

[5] = Study 3: toxicity, highest non-toxic dose; type: in vivo, female SCID mice; conditions: Study 3, AVE8062 alone i.v. days 9, 14
Protocol: The animals are observed and weighed every day.
The AVE8062 was administered intravenously on days 9 and 14 post implantation of the NCI-H460 pulmonary tumour in female SCID mice.

[6] = sorafenib 100.0 mg/kg/admin p.o. days 10-14
[7] = sorafenib 100.0 mg/kg per injection p.o. days 9-20
[8] = AVE8062 22.3 mg/kg/admin i.v. days 10, 14
[9] = AVE8062 22.3 mg/kg per injection i.v. days 9, 14

## CNC(=O)c1cc(Oc2ccc(NC(=O)Nc3ccc(Cl)c(C(F)(F)F)c3)cc2)ccn1 [Sorafenib, 4-[4-[[4-chloro-3-(trifluoromethyl)phenyl]carbamoylamino]phenoxy]-N-methylpyridine-2-carboxamide]
[1]; [6]
  Observations: HDT - Active
  Regressions complete: 0/6
  Regressions partial: 0/6
  T − C: 6.1 days
  log cell kill: 1.1
[2]; [7]
  CR: 0/6
  Observations: HDT - no cytostasis
  PR: 0/6
  gross log cell kill: 2.4
  net log cell kill: −0.4
[3]; [6]
  Mortality (day of death): 0/6

## COc1ccc(/C=C\c2cc(OC)c(OC)c(OC)c2)cc1NC(=O)[C@@H](N)CO [AVE8062, (Z)—N-[2-methoxy-5-[2-(3,4,5-trimethoxyphenyl)vinyl]phenyl]-L-serinamide]
[1]; [8]
  Observations: HNTD - active
  Regressions complete: 0/5
  T − C: 5.8 days
  log cell kill: 1.1
[1]; AVE8062 22.3 mg/kg/admin i.v. days 10, 14, 22.3 mg/kg
  Regressions partial: without inducing tumour regression and 0/5
[4]
  CR: 0/6
  Observations: Inactive
  PR: 0/6
  log cell kill: 0.6
  net log cell kill: −0.1
[2]; [9]
  CR: 0/6
  Observations: Active
  PR: 0/6
  gross log cell kill: 1.7
  net log cell kill: 0.3
[5]
  highest non-toxic dose (HNTD): 36 mg/kg per injection
[3]; [8]
  Mortality (day of death): 0/5
[3]; AVE8062 22.3 mg/kg/admin i.v. days 10, 14, lowest point day 21
  % BWC (day of lowest point): −3.2 (21) %
[3]; Study 2, AVE8062 alone i.v. days 10, 14
  highest non-toxic dose (HNTD): 22.3 mg/kg per injection
